Assay results from ChEMBL document CHEMBL4190370, “Emerging New Targets for the Treatment of Resistant Fungal Infections” (J Med Chem, 2018).
pIC50, pKi: −log10 of the molar value. Converted amounts (≈) assume the structure as drawn.

Columns and labels:
Candida albicans [1] = assay: Inhibition of Cch1 in Candida albicans isolate 16 assessed as potentiation of fluconazole-induced antifungal activity by measuring fractional inhibitory concentration index after 24 hrs by checkerboard assay
Candida albicans [2] = assay: Inhibition of Cch1 in Candida albicans isolate 10 assessed as potentiation of fluconazole-induced antifungal activity by measuring fractional inhibitory concentration index after 24 hrs by checkerboard assay
Cryptococcus neoformans = assay: Antifungal activity against Cryptococcus neoformans H99 serotype A after 72 hrs by microdilution method; type: functional, Cryptococcus neoformans var. grubii H99
Candida albicans [3] = assay: Antifungal activity against Candida albicans; type: functional
[4] = Inhibition of Aspergillus fumigatus AGM1
Candida albicans [5] = assay: Synergistic antimicrobial activity against Candida albicans Ca2323 isolate at MIC concentration after 24 hrs at 30 degC in presence of G365; type: functional
Saccharomyces cerevisiae [6] = assay: Synergistic antimicrobial activity against Saccharomyces cerevisiae S288c isolate at MIC concentration after 24 hrs at 30 degC in presence of G884; type: functional
[7] = Toxicity in ip dosed DBA/2 mouse infected with Candida albicans MY1055 administered bid for 2 days or qd for 4 days measured on day 4; type: organism-based; settings: in vivo
Candida albicans [8] = assay: Synergistic antimicrobial activity against Candida albicans Ca2323 isolate at MIC concentration after 24 hrs at 30 degC in presence of G884; type: functional
Saccharomyces cerevisiae [9] = assay: Synergistic antimicrobial activity against Saccharomyces cerevisiae S288c isolate at MIC concentration after 24 hrs at 30 degC in presence of G365; type: functional

SMILES: COC(=O)C1=C(C)NC(C)=C(C(=O)OC)C1c1ccccc1[N+](=O)[O-]
- fractional inhibitory concentration index (FICI) (Candida albicans [1]): 0.017 to 0.035
- fractional inhibitory concentration index (FICI) (Candida albicans [2]): 0.017 to 0.035

SMILES: COC(=O)C1=C(C)NC(C)=C(C(=O)OC2CCCN(Cc3ccccc3)C2)C1c1cccc([N+](=O)[O-])c1 (stereo unspecified)
- fractional inhibitory concentration index (FICI) (Candida albicans [1]): 0.017 to 0.035
- fractional inhibitory concentration index (FICI) (Candida albicans [2]): 0.017 to 0.035

SMILES: C=CC[C@@H]1/C=C(\C)C[C@H](C)C[C@H](OC)[C@H]2O[C@@](O)(C(=O)C(=O)N3CCCC[C@H]3C(=O)O[C@H](/C(C)=C/[C@@H]3CC[C@@H](O)[C@H](OC)C3)[C@H](C)[C@@H](O)CC1=O)[C@H](C)C[C@@H]2OC [TACROLIMUS ANHYDROUS]
- MIC (Cryptococcus neoformans): 0.01 µg/mL (≈ 0.0124 µM)

SMILES: CC[C@@H](C)[C@@H](O)[C@H](C)C(=O)[C@H](C)/C=C(\C)C[C@H](C)C1OC(=O)[C@H]1C (stereo partly specified)
- MIC (Candida albicans [3]): 64 µg/mL (≈ 189 µM)

SMILES: Cc1nc(/N=N/c2ccc(C(=O)O)cc2)c(COP(=O)(O)O)c(C=O)c1O
- pIC50 [4]: 5.15

SMILES: CCOC(=O)C1=C(COCCN)NC(C)=C(C(=O)OC)C1c1ccccc1Cl (stereo unspecified)
- fractional inhibitory concentration index (FICI) (Candida albicans [1]): 0.017 to 0.035
- fractional inhibitory concentration index (FICI) (Candida albicans [2]): 0.017 to 0.035

SMILES: Nc1ccc(O)c2c1C(=O)c1c(O)ccc(N)c1C2=O
- pKi [4]: 3.52

SMILES: C=C1C2CC3[C@@H](C(C)C)[C@H](OC(=O)NCCCC)C[C@]3(C)CC2/C(C)=C\CC2[C@H](C)OC(=O)[C@@H](O)[C@@]12O (stereo partly specified)
- fractional inhibitory concentration index (FICI) (Candida albicans [5]): 0.25 - 0.313
- fractional inhibitory concentration index (FICI) (Saccharomyces cerevisiae [6]): 0.25 - 0.313
- LD50 at 4 days [7]: > 300 mg/kg
- fractional inhibitory concentration index (FICI) (Candida albicans [8]): 0.25 - 0.313
- fractional inhibitory concentration index (FICI) (Saccharomyces cerevisiae [9]): 0.25 - 0.313

SMILES: CCOC(=O)c1ccccc1S(=O)(=O)NC(=O)Nc1nc(Br)cc(OC)n1
- MIC90 (Candida albicans [3]): 0.72 µg/mL (≈ 1.57 µM)

SMILES: C/C=C/C[C@@H](C)[C@@H](O)[C@H]1C(=O)N[C@@H](CC)C(=O)N(C)CC(=O)N(C)[C@@H](CC(C)C)C(=O)N[C@@H](C(C)C)C(=O)N(C)[C@@H](CC(C)C)C(=O)N[C@@H](C)C(=O)N[C@H](C)C(=O)N(C)[C@@H](CC(C)C)C(=O)N(C)[C@@H](CC(C)C)C(=O)N(C)[C@@H](C(C)C)C(=O)N1C [CYCLOSPORINE]
- MIC (Cryptococcus neoformans): 0.39 µg/mL (≈ 0.324 µM)

SMILES: NC(Cc1cc(O)c(O)cc1O)C(=O)O (stereo unspecified)
- pIC50 [4]: 4.24

SMILES: Fc1ccc(C(c2ccc(F)cc2)N2CCN(C/C=C/c3ccccc3)CC2)cc1
- fractional inhibitory concentration index (FICI) (Candida albicans [1]): 0.017 to 0.035
- fractional inhibitory concentration index (FICI) (Candida albicans [2]): 0.017 to 0.035

SMILES: N=C(N)NCCC[C@H](N)C(=O)N[C@@H](/C=C/CP(=O)(O)O)C(=O)O
- MIC (Candida albicans [3]): 0.35 µg/mL (≈ 0.996 µM)
